Data on seven compounds can be found in patent US7820829B2, “Bisbenzisoselenazolonyl derivatives having antineoplastic, anti-inflammatory and antithrombotic activities as well as their use” (Peking University, priority 2001, dated 2010).

The subject of one data set is HL-60. The data set can be described thus: E003 in combination with other antineoplastic agents on growth of cancer cell. Particulars: HL-60, 24 h. Type of data set: cell-based, human.
The next data set relates to thrombosis. The data set can be described thus: Electrically induced thrombosis in rat neck artery (OT value). Type of data set: in vivo. Particulars: male SD rats, oral 30 mg/kg, 1 hour after administration; electricity 3 mA, 180 s. As to the method:
Male SD rats (300-400 g) were randomized into a no-treatment control group (0.25% CMC), an ASA reference group (0.25% CMC, a few Tween-80) and three treatment groups (the compounds E001, E002 and E003). There are 5 animals in each group. The inventive compounds and reference drugs were orally administered respectively in amount of 30 mg/kg. The animals were anesthetized with urethane after 1 hour of the administration. The neck artery was separated surgically and OT value was measured (the stimulating conditions: electricity, 3 mA; time, 180 s).

In data set [1] the test system is xylene-induced ear oedema. The data set can be described thus: Xylene-induced ear oedema in mice. Type of data set: in vivo. Particulars: oral; for Inhibiting rate (%) (to aspirin): relative to aspirin 200 mg/kg; for Inhibiting rate (%) (to indomethacin): relative to indomethacin 22 mg/kg. As for the experimental part:
The anti-inflammatory effects of the test compounds E001, E002 and E 003 were evaluated in xylene-induced ear oedema in mice. The mice were randomized into a no-treatment control group, three reference groups and three treatment groups. There are 10 animals in each group. The test compounds, saline and reference drugs (indomethacin, Aspirin and Ebselen) were orally administered respectively. Ear oedema was induced by topical administration of xylene ([…] per ear) to the inner surface of the right ear after 1 hour of the administration. After 2 hours, the mice were killed. The change in the ear's weight with diameter of 8 mm was measured with a precision micrometer. The inhibiting rate of each compound to the xylene-induced ear oedema was calculated in accordance with the ear weight and the results were listed in Table 7.
The procedure described in Example 8 was repeated. And the results of the experiment are shown by the following table: […]

Another data set deals with Lewis lung cancer. The data set can be described thus: Lewis lung cancer transplanted in C57 mice. Type of data set: in vivo, C57 mouse. Particulars: 2 mg/kg. As for the experimental part: Lewis lung cancer tissue was resuscitated and subcultured by standard procedure. A piece of Lewis lung cancer was transplanted into the subcutaneous space on the back of each C 57 mouse for inoculation and growth. The Lewis lung cancer cells were dispersed in saline to form a cell suspension of 10^6/ml. 0.2-0.3 ml of the suspension were inoculated into each C57 mouse Mice were randomized into three groups, 10 for each group. In the treatment group, the mice were injected i.p. with […] in amount of 50 mg/kg; in reference group, DDp, 2 mg/kg; and in the negative control group (solvent group), 0.5% CMC-Na. The total volume for every group is the same. […] was administered by i.p. from the second day of transplantation for 3 days until the mice were sacrificed. The C57 mice were disinfected with 70% alcohol. The Lewis lung cancer tissue was removed, photographed and weighted. Then, the subcutaneous tumors were fixed by formaldehyde for further analysis.

The test system of another data set is mice. Particulars: cited from earlier work.

The term inhibition denotes the relative decrease from the control value, in per cent. What is called LD50 is the dose expected to kill half of the subjects tested.

For `COc1cccc2c1C(=O)c1c(O)c3c(c(O)c1C2=O)C[C@@](O)(C(=O)CO)C[C@@H]3O[C@H]1C[C@H](N)[C@H](O)[C@H](C)O1` [Adriamycin], the inhibition at 0.1 µg/mL with HL-60 (Homo sapiens, Adriamycin alone 0.1 mg/L, read-out: Inhibition rate) was -7 ± 0.7%.

As to `CC(=O)Oc1ccccc1C(=O)O` [Aspirin], the “Average OT value” in the data set with thrombosis was 588.2 s. In addition, the Ear oedema % in data set [1] (Example 8, mice, 200 mg/kg) is 10.63%; in data set [1] (Example 11, mice, 200 mg/kg), 10.27%.

Take `CC(=O)OC[C@H]1OC(OC(C)=O)[C@H](n2[se]c3ccccc3c2=O)[C@@H](OC(C)=O)[C@@H]1OC(C)=O` (stereo partly drawn) [Compound E001, 2-(1,3,4,6-tetra-O-acetyl-2-deoxy-D-glucopyranosyl)-(1,2)-benzisoselenazol-3(2H)-one]: the “Average OT value” in the data set with thrombosis came out at 561.2 s. For the same compound, in data set [1] (Example 8, mice, 50 mg/kg), the Ear oedema % amounted to 4.81%, the “Inhibiting rate (%) (to aspirin)” value is reported as 54.75 (to aspirin) % and the “Inhibiting rate (%) (to indomethacin)” value was 75.81 (to indomethacin) %.

In the case of `N.N.[Cl][Pt][Cl]` [DDP, Cisplatin], the Inhibition rate is recorded as 0.067 ± 0.014 in the data set on HL-60 (Cisplatin alone 0.5 μmol/L) and 0.12 ± 0.032 in the data set on HL-60 (Cisplatin alone 5 μmol/L). Further, the “tumor volume, average” value with Lewis lung cancer worked out at 473 mm^3.

Take `O=c1c2ccccc2[se]n1-c1ccccc1` [Ebselen, 2-phenyl-(1,2)-benzisoselenazol-3(2H)-on]: in data set [1] (Example 8, mice, 50 mg/kg), the Ear oedema % is on record as 6.22%, the “Inhibiting rate (%) (to aspirin)” value is reported as 41.48 (to aspirin) % and the “Inhibiting rate (%) (to indomethacin)” value is reported as 68.72 (to indomethacin) %. Further, the LD50 in the data set with mice was above 6810 mg/kg.

Take `COc1ccc2c(c1)c(CC(=O)O)c(C)n2C(=O)c1ccc(Cl)cc1` [Indomethacin]: the Ear oedema % was found to be 19.89% in data set [1] (Example 8, mice, 22 mg/kg) and 19.12% in data set [1] (Example 11, mice, 22 mg/kg).

As for `CC(=O)O[C@H]1C(=O)[C@@]2(C)[C@H]([C@H](OC(=O)c3ccccc3)[C@]3(O)C[C@H](OC(=O)[C@H](O)[C@@H](NC(=O)c4ccccc4)c4ccccc4)C(C)=C1C3(C)C)[C@]1(OC(C)=O)CO[C@@H]1C[C@@H]2O` [Taxol], the inhibition at 0.001 µg/mL in the data set on HL-60 (Homo sapiens, Taxol alone 0.001 mg/L, read-out: Inhibition rate) turned out to be 2 ± 1%. For the same compound, the inhibition at 0.01 µg/mL in the data set with HL-60 (Homo sapiens, Taxol alone 0.01 mg/L, read-out: Inhibition rate) amounted to 27 ± 7.9%.
